Tests used:
Assay type in all cases: cell-based, human
[1] = tested on: Sp1; assay: Sp1 quantitation in nuclear extracts of T cells; settings: PHA-stimulated T cells, 5-azaC 72 h
[2] = tested on: KIR2DL4; assay: Cell stimulation with immobilized anti-KIR2DL4 and IFN-γ quantitation (Example 15); settings: without anti-KIR2DL4 crosslinking, p<0.001
Procedure: Cell stimulation and IFN-γ quantitation. Anti-human KIR2DL4 (R&D systems) or isotype matched control (10 μg/ml in PBS) were added to 24 well plates, incubated 6 hours 37° C., then the wells were washed twice with PBS to remove unbound antibody. 2×10^5 T cells were then added to the coated wells in RPMI 1640 supplemented with 10% FBS and cultured for 20 hours. The supernatant was then recovered and IFN-γ levels measured using a human IFN-γ ELISA kit (R&D Systems).
KIR function in 5-azaC treated T cells. It was determined if 5-azaC induced KIR2DL4 stimulates IFN-γ in T cells. PBMC were stimulated with PHA for 18 hours, treated with 5-azaC, then 72 hours later CD4+ and CD8+ cells were isolated, stimulated for 6 hours with immobilized anti-KIR2DL4 or an isotype matched antibody, then IFN-γ was measured in the supernatant by ELISA.

[3] = tested on: KIR2DL2 promoter; assay: KIR2DL2 promoter reporter construct assay in T cells
Procedure: Reporter construct assays. Amplified KIR promoter fragments were subcloned into the EcoRI site of the promoterless pmaxFP-Yellow-PRL vector (Amaxa GmbH). Plasmids were purified using QIAGEN EndoFree Plasmid Kits (QIAGEN), and 2 μg of DNA transfected into untreated or 5-azaC treated human T cells using the human T cell nucleofector kit (Amaxa GmbH) and the manufacturer's protocol. Controls included cotransfection with pmaxGFP (Amaxa GmbH) and transfection with the promoterless reporter vector. Fluorescence was measured by flow cytometry. Site directed mutagenesis. Mutations were introduced into the same pmaxFP-Yellow-PRL KIR2DL2 and KIR2DL4 promoter constructs using the QuickChange Multi Site-Directed Mutagenesis Kit (Stratagene, La Jolla, Calif.). The changes include a […]→[…] mutation at −78→−71 in the Sp1 site, a CCC→ACA mutation at −61→−59 in the Ets1 site, or both, in the KIR2DL2 promoter, and a TTT→GGG mutation at −73→−71 in the Ets1 site, a CCC→ACA mutation at −61→−59 in the Ets1 site, or both, in the KIR2DL4 promoter. A separate G→A mutation in the AML site was also introduced into both promoters at −98 (16; 17). The constructs were transfected in to PHA stimulated, 5-azaC treated T cells as above. Controls included transfection with pmaxGFP.
Effects of 5-azaC on KIR transcriptional activator-DNA interactions. […]

[4] = tested on: KIR2DL2; assay: KIR2DL2 transcripts by real-time quantitative RT-PCR; settings: relative to β-actin, p<0.001 for both
Procedure: T cell purification and culture. Peripheral blood mononuclear cells (PBMC) were isolated from healthy donors by density gradient centrifugation, stimulated for 18 hours with 1 μg/mlphytohemagglutinin (PHA) (Murex, Norcross, Ga.), then treated or not with 5 μm 5-azacytidine (5-azaC, Sigma, St. Louis, Mo.) for 72 hours as described (6). Total T cells, CD4^+ T cells or CD8′ T cells then were purified using the pan T cell isolation kit II or the CD4^+ and CD8^+ T cell isolation kit II from Miltenyi (Auburn, Calif.). T cells were typically >94% CD3^+ by flow cytometry. Jurkat cells (E6-1) were maintained in culture as described (11). This protocol was approved by the University of Michigan Institutional Review Board.
Real-time quantitative RT-PCR. Total RNA was isolated using the RNeasy Mini Kit (QIAGEN, Valencia, Calif.). Primers were designed to match polymorphic positions unique to KIR2DL2 or KIR2DL4 genes as described by Uhrberg et al. (13). Controls included β-actin primers as described (14). Real-time quantitative RT-PCR was performed with a Rotor-Gene 3000 (Corbett Robotics, San Francisco, Calif.) and QuantiTect SYBR Green RT-PCR kit (QIAGEN) according to manufacturer's instructions. cDNA synthesized from T cells was used to generate standard curves for β-actin, KIR2DL2 and KIR2DL4, and each experiment was repeated at least twice.
Confirmation at the protein and mRNA levels. […]

## Nc1ncn([C@@H]2O[C@H](CO)[C@@H](O)[C@H]2O)c(=O)n1 [5-azaC, 5-azacytidine]
[1]
  activated Sp1 levels: increases activated Sp1 levels
[2]
  IFN-γ secretion by 5-azaC treated CD4+ and CD8+ T cells: secrete significant (p<0.001) amounts of IFN-γ
[3]; 5-azaC treated vs untreated T cells, FIG. 29b, p<0.005
  increase of KIR2DL2 promoter function: 3-4 fold
[3]; relative to untreated T cells, FIG. 29c
  increase of expression of the unmodified KIR2DL2 construct: ~2 fold
[4]
  KIR2DL2 mRNA in CD4+ and CD8+ T cells: increase is significant in both subsets
